The data set can be described thus: Human HepG2 cell viability assay in 384 well format. On the set-up: dose 125 nL, time 70.5 hour; concentration not given beside the values. In kind it is toxicity, cell-based. The settings on record: HepG2 cells, read-out: Inhibition.
As to `CN(c1ccc(OCc2cnc(Cl)s2)cc1)S(C)(=O)=O`, the cytotoxicity at 70.5 h was 5.74%.
`CS(=O)(=O)c1cccc(S(=O)(=O)NC(=O)CCC2CCCCC2)c1`: the cytotoxicity at 70.5 h is -7.19%.
`CC1(CCNC(=O)NCc2ccsc2)OCCO1`: the cytotoxicity at 70.5 h was -6.29%.
As to `CCC(C)CS(=O)(=O)NC(=O)C1CCC1` (stereo not drawn), the cytotoxicity at 70.5 h was found to be 21.3%.
For the compound `FC(F)(F)c1cccc(C2(CNCc3cc[nH]c3)CCOCC2)c1`, the cytotoxicity at 70.5 h was -3.76%.
`CCC(CC)CS(=O)(=O)NC(=O)C1CCC1`: the cytotoxicity at 70.5 h was -4.87%.
In the case of `CC(=O)c1cccc(S(=O)(=O)N2CCC(c3n[nH]c(C)n3)CC2)c1`, the cytotoxicity at 70.5 h turned out to be 2.75%.
`OC1(CN2CCC(Cc3ccccc3)CC2)CCC1`: the cytotoxicity at 70.5 h was -4.49%.
On to `COc1cccc(S(=O)(=O)NC(=O)CC2CCCC2)c1`, for which the cytotoxicity at 70.5 h is -3.66%.
For `Cc1cc(C)n(C2CN(CCc3ccccn3)C2)n1`, the cytotoxicity at 70.5 h was -11.1%.
In the case of `CCN(C(=O)CCOC)C(c1ccc(Cl)cc1)c1ccccn1` (stereo not drawn), the cytotoxicity at 70.5 h was -6.55%.
Next, `O=C(COc1ccccc1NCc1ccoc1)N1CCOCC1`: -18.1%.
For the compound `CCCn1nnnc1COc1ccc(C(=O)OC)cc1OC`, the cytotoxicity at 70.5 h is -16.9%.
With `Cc1nn(C)c2ncc(CN3CCN(c4ncccn4)CC3)cc12`, the cytotoxicity at 70.5 h is -21.9%.
Take `CCC(C)NS(=O)(=O)c1ccc(C(=O)NC2(C#N)CCC2)cc1` (stereo not drawn): the cytotoxicity at 70.5 h was 39.3%.
With `c1ccc(CCN2CC(n3cccn3)C2)nc1`, the cytotoxicity at 70.5 h was -15.6%.
Turning to `CC(C)C(C(=O)N1CCN(c2ccncc2)CC1)n1cncn1` (stereo not drawn), the cytotoxicity at 70.5 h was -7.42%.
Regarding `CN(C(=O)c1cccc(C(=O)NCC(F)(F)F)c1)c1ccccc1`, the cytotoxicity at 70.5 h is 10.6%.
For the compound `Fc1ccc(CN2CCCC(Cn3cncn3)C2)c2ncccc12` (stereo not drawn), the cytotoxicity at 70.5 h was -5.13%.
With `CC(C)(C)c1ccc(C2(C(=O)NCCS(N)(=O)=O)CC2)cc1`, the cytotoxicity at 70.5 h was -9.31%.
On to `Cc1cc(CNC(=O)NC(C)c2ccc(N3CCOCC3)cc2)no1` (stereo not drawn), for which the cytotoxicity at 70.5 h was -5.55%.
With `Cc1ccc(C(C)NC(=O)Cc2c(C)nc3c(c2C)c(=O)[nH]n3C)o1` (stereo not drawn), the cytotoxicity at 70.5 h was -4.59%.
As for `Cc1n[nH]cc1CNc1ccc2c(c1)N(C(=O)OC(C)(C)C)CCC2`, the cytotoxicity at 70.5 h is -5.44%.
Consider `c1cnnc(N2CCCC(NCc3nc(C4CC4)no3)C2)c1` (stereo not drawn), for which the cytotoxicity at 70.5 h was -1.23%.
Take `CN(Cc1cccc(F)c1)C(=O)CN1CCCCC1Cn1cncn1` (stereo not drawn): the cytotoxicity at 70.5 h was -9.08%.
In the case of `CCN(Cc1nc(C(C)C)no1)Cc1cccs1`, the cytotoxicity at 70.5 h is -10.8%.
Consider `CN(Cc1ccc(C#N)cc1)Cc1noc(C(C)(C)C)n1`, for which the cytotoxicity at 70.5 h was -10.4%.
Next, `CCCS(=O)(=O)NCc1cccnc1OCC`: -6.74%; `CCc1nc(C2CCCN2Cc2nc(C3CC3)no2)no1` (stereo not drawn): -5.95%; `O=C(Cc1ccccc1F)N1CCN(C(=O)c2cccc(F)c2)CC1`: 38%.
With `COc1ccc(CS(=O)(=O)CC(=O)NCc2ccccc2F)cc1F`, the cytotoxicity at 70.5 h is -11.2%.
As to `O=C(COc1cccc2c1CCC2=O)NCc1ccccc1F`, the cytotoxicity at 70.5 h is -2.34%.
Regarding `Cc1cc(NS(=O)(=O)c2ccccc2F)ccc1-n1cccc1C(=O)O`, the cytotoxicity at 70.5 h was -1.31%.
Next, `O=C(c1ccco1)N1CCCC1C1CCN(Cc2ccccc2)CC1` (stereo not drawn): -5.08%; `O=C(CN1CCC(C(=O)c2cc(F)ccc2F)CC1)NC1CCCC1`: 24.6%.
In the case of `CCCC(C)C(=O)NCc1cn2cc(Br)ccc2n1` (stereo not drawn), the cytotoxicity at 70.5 h was -7.73%.
In the case of `COc1cccc(CNC(=O)C(c2cccc(F)c2)N2CCOCC2)c1` (stereo not drawn), the cytotoxicity at 70.5 h was determined as 10.7%.
For `Cc1ccc(CN(C)C(=O)CN2CC(n3cccn3)C2)o1`, the cytotoxicity at 70.5 h was determined as 23.5%.
For the compound `Cc1nc(NC(=O)CNC(=O)c2c(F)cccc2Cl)n[nH]1`, the cytotoxicity at 70.5 h was -6.51%.
In the case of `CN(C)c1cc(C(=O)NCCc2n[nH]c(=O)[nH]2)ccn1`, the cytotoxicity at 70.5 h was -5.07%.
As to `CNC(=O)Nc1cc(-c2ccc(Br)cc2)nn1CCO`, the cytotoxicity at 70.5 h was -0.486%.
With `Cn1cccc1CNC(=O)N(CCO)C1CCCc2ccccc21` (stereo not drawn), the cytotoxicity at 70.5 h turned out to be 7.35%.
`O=C(Nc1nc2c(s1)CCC2)c1cccnc1N1CCOCC1`: the cytotoxicity at 70.5 h was -0.827%.
For `COc1cc(C(=O)N(Cc2ccco2)C2CC2)cc2c1OCCO2`, the cytotoxicity at 70.5 h is -0.578%.
As for `O=C(NCC(O)c1ccc(F)c(F)c1)c1cccnc1O` (stereo not drawn), the cytotoxicity at 70.5 h is -3.92%.
`O=C(NCCCN1CCOCC1)c1cc(-c2ccco2)[nH]n1`: the cytotoxicity at 70.5 h was -11.6%.
As for `Cc1csc(CNC(=O)NC2CCN(c3ncccn3)CC2)n1`, the cytotoxicity at 70.5 h was -11.3%.
The same measure for `O=C(Nc1nncs1)NC1CCOc2ccccc21` (stereo not drawn): 3.46%.
With `O=C(Nc1nncs1)NC1CCc2ccccc21` (stereo not drawn), the cytotoxicity at 70.5 h was -8.87%.
On to `Cc1cc(-c2nnn(CCC(N)=O)n2)ccc1F`, for which the cytotoxicity at 70.5 h is -9.65%.
On to `O=C(NC1CC1)c1cc(NC(=O)N2CCCC(O)C2)ccc1Cl` (stereo not drawn), for which the cytotoxicity at 70.5 h is -7.86%.
The same measure for `Cc1nn(C(C)C)c(C)c1NC(=O)c1ccccc1`: -0.962%.
In the case of `O=C(NCC(O)c1ccc(F)c(F)c1)c1cccnc1OCC(F)(F)F` (stereo not drawn), the cytotoxicity at 70.5 h is -8.69%.
As to `O=C(CCNC(=O)c1ccccc1N1CCOCC1)NC1CCCC1`, the cytotoxicity at 70.5 h is -1.96%.
`O=C(CN(Cc1ccccc1)CC1CCOCC1)Nc1nccs1`: the cytotoxicity at 70.5 h was -0.217%.
Consider `CC1Cc2ccccc2N1Cc1occc1C(=O)OCC(N)=O` (stereo not drawn), for which the cytotoxicity at 70.5 h was found to be 2.01%.
As to `O=C(CN(Cc1ccccc1)CC1CCOCC1)NC(=O)NC1CC1`, the cytotoxicity at 70.5 h stood at 11.8%.
For `Cc1ccoc1-c1nnc(CNCC2CCCN2c2cccnn2)o1` (stereo not drawn), the cytotoxicity at 70.5 h was -4.49%.
Next, `COc1cc(C)sc1C(=O)N1CCC(Nc2cccnc2)CC1`: -5.15%.
The same measure for `CC(C)c1ccc(-c2nnn(CCNS(C)(=O)=O)n2)cc1`: 3.94%; for `Cc1noc(C)c1CNC(=O)N1CCC(C(O)c2ccccc2)CC1` (stereo not drawn): -6%.
In the case of `CC(=O)c1c(F)cccc1N1CCC(Cc2cccnc2)CC1`, the cytotoxicity at 70.5 h came to 9.22%.
Regarding `CC(C)Cc1noc(CN2CCN(C(=O)c3cccc(F)c3)CC2)n1`, the cytotoxicity at 70.5 h is -3.6%.
Turning to `CC(=O)c1c(F)cccc1N1CCC(CS(N)(=O)=O)CC1`, the cytotoxicity at 70.5 h is -10.5%.
Turning to `CN(Cc1nnc(C2CC2)n1C)C1CCN(Cc2ccccc2F)C1` (stereo not drawn), the cytotoxicity at 70.5 h was -2.35%.
For `CN(C(=O)Cc1ccc2c(c1)OCCO2)C1CCCC1`, the cytotoxicity at 70.5 h is 19.8%.
The same measure for `CN(CCC#N)C(=O)CCOc1cccc(F)c1`: 13%.
Consider `O=C(NC1CCCN(c2ncccn2)C1)c1ccoc1` (stereo not drawn), for which the cytotoxicity at 70.5 h is -1.17%.
Take `Cc1ccc(CN2CCC3(CC(C(=O)NC4CCC4)=NO3)C2)o1` (stereo not drawn): the cytotoxicity at 70.5 h is -14.5%.
Take `O=C(NCCN1CCOCC1)C1=NOC2(CCN(Cc3nccs3)C2)C1` (stereo not drawn): the cytotoxicity at 70.5 h was -17.4%.
As to `O=C(NC1CCC1)C1=NOC2(CCN(Cc3ccccc3)C2)C1` (stereo not drawn), the cytotoxicity at 70.5 h is -10.6%.
As to `COCC(=O)N1CC[C@@H](N2CCOCC2)[C@@H]1Cc1cccnc1`, the cytotoxicity at 70.5 h was -12.2%.
The same measure for `Cc1noc(C)c1C(=O)N1C[C@@H]2C[C@@H](c3ccncn3)O[C@@H]2C1`: -3.05%.
Take `Cc1oncc1C(=O)N1CC[C@H]2C[C@H](c3ccncn3)O[C@@H]2C1`: the cytotoxicity at 70.5 h is 7.58%.
On to `O=C(c1c2c(N3CCCC3)ncnc2n2ccccc12)N1CCCC1`, for which the cytotoxicity at 70.5 h is -11%.
As for `CC(=O)N1CCC2(CC1)CCN(C(=O)c1cccc(C(F)(F)F)c1)C2`, the cytotoxicity at 70.5 h was -13.6%.
Regarding `CC(=O)N1CCC2(CCN(C(=O)c3ccc(Cl)c(C(F)(F)F)c3)C2)C1` (stereo not drawn), the cytotoxicity at 70.5 h was -11%.
As to `Cc1ncoc1C(=O)N1CCn2c(COc3cccnc3)cnc2C1C` (stereo not drawn), the cytotoxicity at 70.5 h was 17.8%.
The same measure for `O=C(NCC1Cn2nnc(-c3ccsc3)c2CO1)c1ccc[nH]1` (stereo not drawn): 1.74%.
On to `O=C(NCC1Cn2nnc(-c3ccncc3)c2CO1)c1ccc[nH]1` (stereo not drawn), for which the cytotoxicity at 70.5 h was -5.04%.
As to `N#CCCNC(=O)c1ccn(-c2ccc3ccccn23)n1`, the cytotoxicity at 70.5 h is -7.72%.
As for `Cc1nc(CN2CCO[C@@H]3CN(C(=O)CN(C)C)CC[C@@H]3C2)cs1`, the cytotoxicity at 70.5 h is -13.1%.
The same measure for `CN(Cc1ccco1)[C@@H]1CN(Cc2ccoc2)C[C@@H]2CCCO[C@@H]21`: -7.61%; for `O=C(NCC1Cn2nnc(-c3ccccc3)c2CO1)c1ccc[nH]1` (stereo not drawn): 1.41%.
Next, `O=C(c1cccs1)N1CC[C@@H](N2CCOCC2)[C@@H]1Cc1ccccc1`: -15.7%.
The same measure for `O=C1COC2(COCCN(Cc3ccsc3)C2)CN1c1ccoc1` (stereo not drawn): 32.5%; for `O=C1CC2(CCN(Cc3ccco3)C2)CN1c1ccc2c(c1)OCO2` (stereo not drawn): 11.6%; for `CN(C)S(=O)(=O)N1CC[C@]2(C[C@@H](Oc3ncccc3F)CO2)C1`: 13.4%.
`O=C(NCc1ccco1)[C@H]1CC[C@@H]2[C@@H](CCN2c2ncccn2)O1`: the cytotoxicity at 70.5 h worked out at 12.4%.
For the compound `Cc1ccc(N2CC[C@H]3O[C@H](C(=O)NCc4ccco4)CC[C@H]32)nn1`, the cytotoxicity at 70.5 h was -18.3%.
As to `CN(C)S(=O)(=O)N1C[C@@H](OCc2cccnc2)[C@H]2OCCC[C@H]21`, the cytotoxicity at 70.5 h stood at 12.6%.
On to `Cc1ccc(CN2C[C@@H]3[C@@H](C2)OCC(=O)N3Cc2ccncc2)s1`, for which the cytotoxicity at 70.5 h was 10.5%.
On to `O=C1CO[C@@H]2CN(Cc3nccs3)C[C@H]2N1Cc1ccncc1`, for which the cytotoxicity at 70.5 h was -11.4%.
Regarding `CN(Cc1ccco1)[C@@H]1CN(Cc2cccs2)C[C@@H]2CCCO[C@@H]21`, the cytotoxicity at 70.5 h was -6.25%.
Consider `CCOCC1CN(c2ccncn2)Cc2cnn(CC3CC3)c21` (stereo not drawn), for which the cytotoxicity at 70.5 h is -7.56%.
With `c1ccc(OCc2nnc3n2CCN(CC2CC2)C3)nc1`, the cytotoxicity at 70.5 h is -13.3%.
On to `CN(Cc1ccncc1)C1COC2(CCN(Cc3ccsc3)CC2)C1` (stereo not drawn), for which the cytotoxicity at 70.5 h is -15.1%.
`CN(Cc1ccco1)[C@@H]1CN(Cc2ccncc2)C[C@@H]2CCCO[C@@H]21`: the cytotoxicity at 70.5 h was -13.9%.

(Values after ChEMBL document CHEMBL3507680, “University of Dundee, Gates Library screen for HepG2 cell viability”.)
